Source: US12583835B2, “Crystal form of nitroxoline prodrug, pharmaceutical composition containing same, and preparation method therefor and application thereof” (Jiangsu Yahong Meditech Co., Ltd., priority 2020, dated 2026)

Experiments:
[1] = Dynamic vapour sorption (DVS); format: physicochemical
Description: The DVS curves were acquired on DVS Intrinsic of SMS (Surface Measurement Systems). The relative humidity at 25° C. was corrected for the deliquescence points of LiCl, Mg(NO3)2 and KCl. • Test temperature: 25° C. • Sample amount: 10-20 mg • Shielding gas and flow: nitrogen, 200 mL/min • dm/dt: 0.002%/min; • Minimum dm/dt equilibration time: 10 min • Maximum equilibration time: 180 min • RH range: 0% RH-95% RH-0% RH • RH gradient: 10% 6. Polarizing Light Microscope (PLM)
The X-ray powder diffraction (XRPD) pattern of the solid is shown in FIG. 1, and the XRPD diffraction peak data thereof is shown in Table 1 below. […] (onset temperature). […] The PLM results are shown in FIG. 5, which indicate that the solid is irregular crystal particles. This crystal form is defined as crystal form A.

[2] = Stability test of crystal form A; format: physicochemical
Description: The crystal forms obtained in Examples 2-10 were packaged in double-layer PE bags+aluminum foil bags+cardboard barrels, sealed and stored at a temperature of 40° C. and a relative humidity of 75%; a temperature of 25° C. and a relative humidity of 60%; at 5±3° C. for 6 months. The inspection items (appearance, moisture, related substance 1, related substance 2, content) were tested, and the specific test methods were as follows.
• Moisture Meter • Electronic balance 1.2 Reagents • Karl Fischer titrant: analytical grad • Anhydrous methanol: analytical grade 1.3 Detection Method • About 50 mL of methanol was pumped into the titration beaker for pre-titration; • About 1.0 g of the test sample was accurately weighed and put into the titration beaker, stirred to dissolve, and the moisture of the test sample was titrated; • The weight of the test sample added, the concentration of the Karl Fischer titrant and the volume of the Karl Fischer titrant consumed during determination were recorded; the moisture of the second test sample was determined using the same method. 1.4 Calculation Formula
[formula] • V—Volume of Karl Fischer titrant consumed for the test sample, mL; • F—Equivalent mass of water per 1 mL of Karl Fischer titrant, mg/mL; • W—Weighed sample amount of the test sample, g. 2 Related Substance 1 2.1 Chromatographic Conditions: High Performance Liquid Chromatography (HPLC) • Column: Waters XBridge C18 4.6×150 mm, 5 μm • Detector: UV or equivalent detector • Wavelength: 210 nm • Column temperature: 35° C. • Flow rate: 1.0 mL/min • Injection volume: 10 μL • Needle Wash: Acetonitrile • Mobile phase gradient: […]
About 25 mg of the test sample was accurately weighed and put into a 50 mL volumetric flask. The diluent was added to dissolve the substance and dilute the solution to the mark, and the solution was shaken well.
[formula] • AU—the peak area of impurities in the test sample solution; • AT—Total peak area of the test sample solution. • 2) Total impurity (%)=Σ single impurity
• 3 Related Substance 2 (D-isobutyrylproline) • 3.1 Chromatographic Conditions: High Performance Liquid Chromatography (HPLC) • Column: Synergi Hydro RP 4.6×250 mm, 4 μm • Detector: UV or equivalent detector • Wave length: 210 nm • Column temperature: 35° C. • Flow rate: 1.0 mL/min • Injection volume: 5 μL • Needle Wash: Acetonitrile • Mobile phase gradient: […]
About 20 mg of the test sample was accurately weighed and put into a 10 mL volumetric flask. The diluent was added to dissolve the test sample and dilute the solution to the mark, and the solution was shaken well. Two solutions were prepared in parallel and labeled as S1/S2 respectively. • 3.4 Calculation: Only the Peak of Related Substance 2 was Integrated
[formula] [formula] • ARS2—Average peak area of reference solution 2; • ARS1—Average peak area of 5 injections of reference solution 1; • As—Peak area of related substance 2 in the test sample solution; • MRS1—Weighed sample amount of related substance 2 in reference solution 1, mg; • Ms—Weighed sample amount of the test sample in the test sample solution, mg; • MRS2—Weighed sample amount of related substance 2 in reference solution 2, mg; […]

CC(C)C(=O)N1CCC[C@H]1C(=O)OCOc1ccc([N+](=O)[O-])c2cccnc12 [crystal form A, ((5-nitroquinolin-8-yl)oxy)methyl-isobutyryl-L-prolinate]
crystal form before and after the DVS test (XRPD) [1]: unchanged | vapor sorption (DVS) ([1]; 25° C./80% RH): 0.17% | Appearance ([2]; 5 ± 3° C., Time 0): Yellow solid | Content ([2]; 5 ± 3° C., Time 0): 101.1% | Moisture ([2]; 5 ± 3° C., Time 0): 0.09% | Related substance 1 5-Nitro-8-hydroxyquinoline ([2]; 5 ± 3° C., Time 0): 0.04% | Related substance 1 Impurity 1 ([2]; 5 ± 3° C., Time 0): 0.27% | Related substance 1 Maximum unknown single impurity ([2]; 5 ± 3° C., Time 0): RRT 1.126: 0.07% | Related substance 1 Total impurities ([2]; 5 ± 3° C., Time 0): 0.53% | Related substance 2 ([2]; 5 ± 3° C., Time 0): 0.06% | Appearance ([2]; 5 ± 3° C., Time 6 M): Yellow solid | Content ([2]; 5 ± 3° C., Time 6 M): 99.6% | Moisture ([2]; 5 ± 3° C., Time 6 M): 0.1% | Related substance 1 Impurity 1 ([2]; 5 ± 3° C., Time 6 M): 0.3% | Related substance 1 Impurity 2 ([2]; 5 ± 3° C., Time 6 M): <0.01% | Related substance 1 Maximum unknown single impurity ([2]; 5 ± 3° C., Time 6 M): RRT 1.121: 0.07% | Related substance 1 Total impurities ([2]; 5 ± 3° C., Time 6 M): 0.5% | Related substance 2 ([2]; 5 ± 3° C., Time 6 M): 0.03% | Appearance ([2]; 25° C., 60% RH, Time 0): Yellow solid | Content ([2]; 25° C., 60% RH, Time 0): 101.1% | Moisture ([2]; 25° C., 60% RH, Time 0): 0.09% | Related substance 1 Impurity 1 ([2]; 25° C., 60% RH, Time 0): 0.27% | Related substance 1 Maximum unknown single impurity ([2]; 25° C., 60% RH, Time 0): RRT 1.126: 0.07% | Related substance 1 Total impurities ([2]; 25° C., 60% RH, Time 0): 0.53% | Related substance 2 ([2]; 25° C., 60% RH, Time 0): 0.06% | Appearance ([2]; 25° C., 60% RH, Time 3 M): Yellow solid | Content ([2]; 25° C., 60% RH, Time 3 M): 99.3% | Moisture ([2]; 25° C., 60% RH, Time 3 M): 0.07% | Related substance 1 Impurity 1 ([2]; 25° C., 60% RH, Time 3 M): 0.32% | Related substance 1 Impurity 2 ([2]; 25° C., 60% RH, Time 3 M): <0.01% | Related substance 1 Maximum unknown single impurity ([2]; 25° C., 60% RH, Time 3 M): RRT 1.123: 0.06% | Related substance 1 Total impurities ([2]; 25° C., 60% RH, Time 3 M): 0.51% | Related substance 2 ([2]; 25° C., 60% RH, Time 3 M): 0.04% | Appearance ([2]; 25° C., 60% RH, Time 6 M): Yellow solid | Content ([2]; 25° C., 60% RH, Time 6 M): 99.8% | Moisture ([2]; 25° C., 60% RH, Time 6 M): <0.1% | Related substance 1 Impurity 1 ([2]; 25° C., 60% RH, Time 6 M): 0.3% | Related substance 1 Impurity 2 ([2]; 25° C., 60% RH, Time 6 M): <0.01% | Related substance 1 Maximum unknown single impurity ([2]; 25° C., 60% RH, Time 6 M): RRT 1.121: 0.06% | Related substance 1 Total impurities ([2]; 25° C., 60% RH, Time 6 M): 0.5% | Related substance 2 ([2]; 25° C., 60% RH, Time 6 M): 0.04% | Appearance ([2]; 40° C., 75% RH, Time 0): Yellow solid | Content ([2]; 40° C., 75% RH, Time 0): 101.1% | Moisture ([2]; 40° C., 75% RH, Time 0): 0.09% | Related substance 1 5-Nitro-8-hydroxyquinoline ([2]; 40° C., 75% RH, Time 0): 0.04% | Related substance 1 Impurity 1 ([2]; 40° C., 75% RH, Time 0): 0.27% | Related substance 1 Maximum unknown single impurity ([2]; 40° C., 75% RH, Time 0): RRT 1.126: 0.07% | Related substance 1 Total impurities ([2]; 40° C., 75% RH, Time 0): 0.53% | Related substance 2 ([2]; 40° C., 75% RH, Time 0): 0.06% | Appearance ([2]; 40° C., 75% RH, Time 1 M): Yellow solid | Content ([2]; 40° C., 75% RH, Time 1 M): 101.1% | Moisture ([2]; 40° C., 75% RH, Time 1 M): 0.06% | Related substance 1 5-Nitro-8-hydroxyquinoline ([2]; 40° C., 75% RH, Time 1 M): 0.02% | Related substance 1 Impurity 1 ([2]; 40° C., 75% RH, Time 1 M): 0.27% | Related substance 1 Maximum unknown single impurity ([2]; 40° C., 75% RH, Time 1 M): RRT 1.125: 0.06% | Related substance 1 Total impurities ([2]; 40° C., 75% RH, Time 1 M): 0.52% | Related substance 2 ([2]; 40° C., 75% RH, Time 1 M): 0.05% | Appearance ([2]; 40° C., 75% RH, Time 2 M): Yellow solid | Content ([2]; 40° C., 75% RH, Time 2 M): 98.8% | Moisture ([2]; 40° C., 75% RH, Time 2 M): 0.09% | Related substance 1 Impurity 1 ([2]; 40° C., 75% RH, Time 2 M): 0.27% | Related substance 1 Impurity 2 ([2]; 40° C., 75% RH, Time 2 M): 0.01% | Related substance 1 Maximum unknown single impurity ([2]; 40° C., 75% RH, Time 2 M): RRT 1.132: 0.05% | Related substance 1 Total impurities ([2]; 40° C., 75% RH, Time 2 M): 0.44% | Related substance 2 ([2]; 40° C., 75% RH, Time 2 M): 0.06% | Appearance ([2]; 40° C., 75% RH, Time 3 M): Yellow solid | Content ([2]; 40° C., 75% RH, Time 3 M): 99.3% | Moisture ([2]; 40° C., 75% RH, Time 3 M): 0.06% | Related substance 1 Impurity 1 ([2]; 40° C., 75% RH, Time 3 M): 0.32% | Related substance 1 Maximum unknown single impurity ([2]; 40° C., 75% RH, Time 3 M): RRT 1.123: 0.05% | Related substance 1 Total impurities ([2]; 40° C., 75% RH, Time 3 M): 0.49% | Related substance 2 ([2]; 40° C., 75% RH, Time 3 M): 0.10% | Appearance ([2]; 40° C., 75% RH, Time 6 M): Yellow solid | Content ([2]; 40° C., 75% RH, Time 6 M): 99.7% | Moisture ([2]; 40° C., 75% RH, Time 6 M): <0.1% | Related substance 1 5-Nitro-8-hydroxyquinoline ([2]; 40° C., 75% RH, Time 6 M): <0.1% | Related substance 1 Impurity 1 ([2]; 40° C., 75% RH, Time 6 M): 0.3% | Related substance 1 Impurity 2 ([2]; 40° C., 75% RH, Time 6 M): <0.01% | Related substance 1 Maximum unknown single impurity ([2]; 40° C., 75% RH, Time 6 M): RRT 0.896: 0.04% | Related substance 1 Total impurities ([2]; 40° C., 75% RH, Time 6 M): 0.6% | Related substance 2 ([2]; 40° C., 75% RH, Time 6 M): 0.15%
